# Assay results taken from PubChem BioAssay AID1918938 (Molecular Pharmacology Branch, DTP, NCI, 2023).
# System: 556581-035-R-J1-PDC complex spheroid viability
# Assay: Anticancer human tumor 556581-035-R-J1-PDC patient-derived ovarian carcinoma cell line growth inhibition
# Conditions: for IC50: curve of first compound; for viability, T/C: stronger effect = lower value
# Outline: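 Complex spheroids of tumor cells with HUVEC and human MSCs, exposed to iadademstat combined with other agents. Each agent tested in half-log steps from near clinical Cmax (else 10 microM top), DMSO ≤0.25%.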
# [1] = second compound 0.1 µM, first compound 0.0316 µM
# [2] = second compound 0.1 µM, first compound 0.1 µM
# [3] = second compound 0.1 µM, first compound 0.316 µM
# [4] = second compound 0.1 µM, first compound 1 µM
# [5] = second compound 0.1 µM, first compound 3.16 µM
# [6] = second compound 0.1 µM, first compound 10 µM
# [7] = second compound 0.316 µM, first compound 0.0316 µM
# [8] = second compound 0.316 µM, first compound 0.1 µM
# [9] = second compound 0.316 µM, first compound 0.316 µM
# [10] = second compound 0.316 µM, first compound 1 µM
# [11] = second compound 0.316 µM, first compound 3.16 µM
# [12] = second compound 0.316 µM, first compound 10 µM
# [13] = second compound 1 µM, first compound 0.0316 µM
# [14] = second compound 1 µM, first compound 0.1 µM
# [15] = second compound 1 µM, first compound 0.316 µM
# [16] = second compound 1 µM, first compound 1 µM
# [17] = second compound 1 µM, first compound 3.16 µM
# [18] = second compound 1 µM, first compound 10 µM
# [19] = second compound 3.16 µM, first compound 0.0316 µM
# [20] = second compound 3.16 µM, first compound 0.1 µM
# [21] = second compound 3.16 µM, first compound 0.316 µM
# [22] = second compound 3.16 µM, first compound 1 µM
# [23] = second compound 3.16 µM, first compound 3.16 µM
# [24] = second compound 3.16 µM, first compound 10 µM
# [25] = second compound 10 µM, first compound 0.0316 µM
# [26] = second compound 10 µM, first compound 0.1 µM
# [27] = second compound 10 µM, first compound 0.316 µM
# [28] = second compound 10 µM, first compound 1 µM
# [29] = second compound 10 µM, first compound 3.16 µM
# [30] = second compound 10 µM, first compound 10 µM
# 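Note: spheroids exposed to agents for seven days.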
# 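Throughout, for viability, T/C: 100% = DMSO vehicle control wells.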
SMILES,IC50 (second compound 0.1 µM) [nM],IC50 (second compound 0.316 µM) [nM],IC50 (second compound 1 µM) [nM],IC50 (second compound 3.16 µM) [nM],IC50 (second compound 10 µM) [nM],"viability, T/C [1] [%]","viability, T/C [2] [%]","viability, T/C [3] [%]","viability, T/C [4] [%]","viability, T/C [7] [%]","viability, T/C [8] [%]","viability, T/C [9] [%]","viability, T/C [10] [%]","viability, T/C [13] [%]","viability, T/C [14] [%]","viability, T/C [15] [%]","viability, T/C [16] [%]","viability, T/C [19] [%]","viability, T/C [20] [%]","viability, T/C [21] [%]",also measured
CC(C)c1c(-c2ccccc2)nc2c(C#N)c[nH]n2c1=O + NC1CCC(NC2CC2c2ccccc2)CC1,> 10000,> 10000,> 10000,8290,4840,93.2,94.5,90.9,87.9,87,79.1,86.3,78.3,72.2,78.2,78,82.3,85.4,76.4,77.8,"viability, T/C [5]: 83%; viability, T/C [6]: 56.5%; viability, T/C [11]: 71.4%; viability, T/C [12]: 54.4%; viability, T/C [17]: 78.7%; viability, T/C [18]: 53.7%; viability, T/C [22]: 76%; viability, T/C [23]: 68.3%; viability, T/C [24]: 46.2%; viability, T/C [25]: 70%; viability, T/C [26]: 73.8%; viability, T/C [27]: 76%; viability, T/C [28]: 66.8%; viability, T/C [29]: 54%; viability, T/C [30]: 43.7%"
CC1COCCN1c1cc(-c2ccnn2C)c2ccnc(-c3ccn[nH]3)c2n1 (stereo not given) + NC1CCC(NC2CC2c2ccccc2)CC1,46.2,27,25,21.6,11.9,55,38.3,36.1,14.8,46.3,38.2,29.8,15.3,45.6,36.8,36.8,17.9,44.3,39.8,35.8,"viability, T/C (second compound 0.1 µM, first compound 0.00316 µM): 64.5%; viability, T/C (second compound 0.1 µM, first compound 0.01 µM): 61.4%; viability, T/C (second compound 0.316 µM, first compound 0.00316 µM): 72.9%; viability, T/C (second compound 0.316 µM, first compound 0.01 µM): 58.8%; viability, T/C (second compound 1 µM, first compound 0.00316 µM): 61.1%; viability, T/C (second compound 1 µM, first compound 0.01 µM): 59.7%; viability, T/C (second compound 3.16 µM, first compound 0.00316 µM): 62.5%; viability, T/C (second compound 3.16 µM, first compound 0.01 µM): 54.7%; viability, T/C [22]: 19.2%; viability, T/C (second compound 10 µM, first compound 0.00316 µM): 50%; viability, T/C (second compound 10 µM, first compound 0.01 µM): 55.5%; viability, T/C [25]: 44.8%; viability, T/C [26]: 38%; viability, T/C [27]: 30.5%; viability, T/C [28]: 17.3%"
COc1ccc([C@@H](O)c2cc(-c3ncnc4cc(N5CCOCC5)ccc34)c(F)cc2Cl)nn1 + NC1CCC(NC2CC2c2ccccc2)CC1,943,582,906,847,639,91,80.4,69,47.9,80.3,81.6,60.6,39.9,76,76.1,66.9,46.6,79.5,78.6,65.3,"viability, T/C [5]: 37.7%; viability, T/C [6]: 32.9%; viability, T/C [11]: 37.7%; viability, T/C [12]: 28.8%; viability, T/C [17]: 35.6%; viability, T/C [18]: 25.6%; viability, T/C [22]: 45.3%; viability, T/C [23]: 37%; viability, T/C [24]: 25.9%; viability, T/C [25]: 63.2%; viability, T/C [26]: 63.2%; viability, T/C [27]: 56.3%; viability, T/C [28]: 44.6%; viability, T/C [29]: 33.3%; viability, T/C [30]: 17%"
